# Values quoted from earlier work, collected in US20220073443A1, “CANNABINOID FORMULATIONS AND METHODS OF MAKING SAME” (BOTANECO INC., priority 2018, published 2022).
# Settings: consumed by smoking marihuana; average
compound,measurement,value
"CCCCCc1cc(O)c2c(c1)OC(C)(C)[C@@H]1CCC(C)=C[C@@H]21 [Δ^9-THC, Δ^9-tetrahydrocannabinol]",bioavailability of pulmonary-delivered Δ9-THC,~30%
